Drawing on patent US6458806B1, “Aryl alkenamides derivatives as MCP-1 antagonists” (Millennium Pharmaceuticals, Inc., priority 1996, dated 2002), this text covers IC50 for one compound.

Where a name gives a salt, the structure may show the parent alone.

In the assay the target is T1, MCP-1 receptor (Homo sapiens, UniProt P41597).
T1 construct: host or cells: THP-1 cell membranes
Kind of assay: MCP-1 binding assay (125I-MCP-1, THP-1 cell membranes). The following applies: 0.2 nM 125I-labeled MCP-1, averages of several or two experiments, read-out: Inhibition Of MCP-1 Binding IC50. The method, then:
Membranes used in the MCP-1 binding assay were prepared from THP-1 cells (human monocytic cell line source—American Type Culture Collection, Tumor Immunology Bank #202, Rockville, Md., accession no. ATCC TIB 202). Cells were harvested by centrifugation and washed twice in ice-cold PBS (phosphate-buffered saline) and the cell pellet was frozen at −80° C. in some cases. Cells were resuspended in ice-cold lysis buffer 5mM HEPES (2-(4N-,[2-hydroxyethyl] piperazin-1-yl)-N′-(2-ethanesulfonic acid), pH 7.5, 2 mM EDTA (ethylenediaminetetraacetic acid), 5 ug/ml each leupeptin, aprotinin, chymostatin (protease inhibitors), and 100 ug/ml PMSF (phenylmethane sulfonyl fluoride—also a protease inhibitor)) at a concentration of 5×10^7 cells/ml. […] Typical binding assays used 10-20 ug/well of total membrane protein as determined with a standard protein assay (e.g. BioRad, Richmond, Calif.).
For binding, 10-20 ug total membrane protein were included in the binding reaction along with 0.2 nM I^125-labeled MCP-1 (Amersham, Arlington Heights, Ill.) with or without unlabeled competitor MCP-1 (Peprotech, Rocky Hill, N.J.) (at 250-500 nM). […] Filters were dried and counted in a Beta-Plate scintillation counter using standard scintillation fluid. […]
IC50s were calculated using a non-linear 3-parameter logistic curve fit. […]

T1 sequence (P41597 whole entry): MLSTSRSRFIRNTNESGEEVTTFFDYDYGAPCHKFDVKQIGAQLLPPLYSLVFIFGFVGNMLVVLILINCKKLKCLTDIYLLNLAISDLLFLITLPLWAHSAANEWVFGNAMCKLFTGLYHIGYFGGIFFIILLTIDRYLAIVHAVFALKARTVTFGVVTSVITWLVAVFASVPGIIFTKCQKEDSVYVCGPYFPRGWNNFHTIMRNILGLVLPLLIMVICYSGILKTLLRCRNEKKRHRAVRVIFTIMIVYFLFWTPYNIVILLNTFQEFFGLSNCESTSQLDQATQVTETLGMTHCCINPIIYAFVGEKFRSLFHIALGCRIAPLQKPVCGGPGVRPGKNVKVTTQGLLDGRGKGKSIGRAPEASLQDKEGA

In the case of `O=C(/C=C/C=C/c1ccc(Cl)c(Cl)c1)NCCCN1CCCCC1` [Example 1, 5-(3,4-Dichloro-phenyl)-penta-2,4-dienoic Acid (3-piperidin-1-yl-propyl)-amide-HCl], the IC50 was 2200 nM.

What is called IC50 is the concentration that inhibits the measured activity by half.
